Data reported in patent US10961238B2, “Modulators of hedgehog (Hh) signaling pathway” (E-THERAPEUTICS PLC, priority 2016, dated 2021).

Test system: C3H10T1/2 cells
Experiment: C3H assay: differentiation of C3H10T1/2 cells by mSHH, measurement of alkaline phosphatase
Type: cell-based, mouse
Details: Mus musculus, C3H 10T1/2; C3H10T1/2 cells stimulated with mSHH for 72 hours; alkaline phosphatase activity; read-out: IC50 Ranges

Compound	IC50
C[C@H]1CC(c2c[nH]c3ncccc23)CCN1S(=O)(=O)C1CN(C(=O)OC(C)(C)C)C1 (mixture of isomers) [Compound 45, tert-butyl 3-[(2R)-2-methyl-4-(1H-pyrrolo[2,3-b]pyridin-3-yl)piperidin-1-yl]sulfonylaze-tidine-1-carboxylate]	0.01 to 0.1 µM
CN(C)CC(C)(C)OC(=O)N1CCC(S(=O)(=O)N2CCC(c3c[nH]c4ncccc34)CC2)C1 (racemic) [Compound 147, [1-(dimethylamino)-2-methylpropan-2-yl]3-[4-(1H-pyrrolo[2,3-b]pyridin-3-yl)piperidin-1-yl]sulfonylpyrr olidine-1-carboxylate]	0.01 to 0.1 µM
CC(C)C(CO)NC(=O)N1CCC(S(=O)(=O)N2CCC(c3c[nH]c4ncccc34)CC2)C1 (racemic) [Compound 149, N-(1-hydroxy-3-methylbutan-2-yl)-3-[4-(1H-pyrrolo[2,3-b]pyridin-3-yl)piperidin-1-yl]sulfonylpyrr olidine-1-carboxamide]	0.01 to 0.1 µM
CC(C)(C)OC(=O)N1CCC(S(=O)(=O)N2CCC(c3c[nH]c4ncccc34)CC2)C1 (racemic) [Compound 150, tert-butyl 3-[4-(1H-pyrrolo[2,3-b]pyridin-3-yl)piperidin-1-yl]sulfonylpyrr olidine-1-carboxylate]	0.01 to 0.1 µM
O=S(=O)(C1CCN(c2ccccn2)C1)N1CCC(c2c[nH]c3ncccc23)CC1 (racemic) [Compound 244, 3-[1-(1-pyridin-2-ylpyrrolidin-3-yl)sulfonylpiper-idin-4-yl]-1H-pyrrolo[2,3-b]pyridine]	0.1 to 1 µM
O=S(=O)(C1CCNC1)N1CCC(c2c[nH]c3ncccc23)CC1 (racemic) [Compound 249, 3-[1-(pyrrolidin-3-yl)sulfonylpiper-idin-4-yl]-1H-pyrrolo[2,3-b]pyridine]	1 to 10 µM
CC(C)(C)OC(=O)N1CCC(S(=O)(=O)N2CCC(c3ccncc3)CC2)C1 (racemic) [Compound 269, tert-butyl 3-(4-pyridin-4-ylpiperidin-1-yl)sulfonylpyrrolidine-1-carboxylate]	0.1 to 1 µM
CN(C(=O)N1CCC(S(=O)(=O)N2CCC(c3ccncc3)CC2)C1)C(C)(C)C (racemic) [Compound 271, N-tert-butyl-N-methyl-3-(4-pyridin-4-ylpiperidin-1-yl)sulfonylpyrr olidine-1-carboxamide]	0.1 to 1 µM
CC(C)[C@H](CO)NC(=O)N1CC(S(=O)(=O)N2CCC(c3ccc(F)cc3)CC2)C1 (racemic) [Compound 344, 3-[4-(4-fluorophenyl)piperidin-1-yl]sulfonyl-N-[1-hydroxy-3-methylbutan-2-yl] azetidine-1-carboxamide]	0.1 to 1 µM
CC(C)C(CO)NC(=O)N1CC(S(=O)(=O)N2CCC(c3ccc(C#N)cc3)CC2)C1 (racemic) [Compound 348, 3-[4-(4-cyanophenyl)piperidin-1-yl]sulfonyl-N-[1-hydroxy-3-methylbutan-2-yl]azetidine-1-carboxamide]	0.1 to 1 µM
CC(C)(C)OC(=O)N1CC(S(=O)(=O)N2CCC(c3c[nH]c4ncc(F)cc34)CC2)C1 [Compound 1, tert-butyl 3[4-(5-fluoro-1H-pyrrolo[2,3-b]pyridin-3-yl)piperidin-1-yl]sulfonylaze-tidine-1-carboxylate]	0.1 to 1 µM
Cc1cnc2[nH]cc(C3CCN(S(=O)(=O)C4CN(C(=O)OC(C)(C)C)C4)CC3)c2c1 [Compound 2, tert-butyl 3-[4-(5-methyl-1H-pyrrolo[2,3-b]pyridin-3-yl)piperidin-1-yl] sulfonylaze-tidine-1-carboxylate]	1 to 10 µM
CC(C)(C)OC(=O)N1CC(S(=O)(=O)N2CCC(c3cncn3Cc3ccccc3)CC2)C1 [Compound 3, tert-butyl 3-[4-(3-benzylimidazol-4-yl)piperidin-1-yl]sulfonylaze-tidine-1-carboxylate]	0.1 to 1 µM
CC(C)(C)OC(=O)N1CCn2c(C3CCN(S(=O)(=O)C4CN(C(=O)OC(C)(C)C)C4)CC3)cnc2C1 [Compound 4, tert-butyl 3-[1-[1-[(2-methylpropan-2-yl)oxycarbonyl]azetidin-3-yl]sulfonylpiper-idin-4-yl]-6,8-dihydro-5H-imidazo[1,2-a]pyrazine-7-carboxylate]	1 to 10 µM
CC(C)(C)OC(=O)N1CC(S(=O)(=O)N2CCC(c3cnc4n3CCC4)CC2)C1 [Compound 5, tert-butyl 3-[4-(6,7-dihydro-5H-pyrrolo[1,2-a]imidazol-3-yl)piperidin-1-yl]sulfonylaze-tidine-1-carboxylate]	1 to 10 µM
COc1ccc(C2CCN(S(=O)(=O)C3CN(C(=O)OC(C)(C)C)C3)CC2)cc1 [Compound 6, tert-butyl 3-[4-(4-methoxyphenyl)piperidin-1-yl]sulfonylaze-tidine-1-carboxylate]	0.1 to 1 µM
CC(C)(C)OC(=O)N1CCC(S(=O)(=O)N2CCC(c3ccnc4[nH]ccc34)CC2)CC1 [Compound 7, tert-butyl 4-[4-(1H-pyrrolo[2,3-b]pyridin-4-yl)piperidin-1-yl]sulfonylpiper-idine-1-carboxylate]	0.1 to 1 µM
Cc1ccc(S(=O)(=O)n2ccc3c(C4CCN(S(=O)(=O)C5CCN(C(=O)OC(C)(C)C)CC5)CC4)ccnc32)cc1 [Compound 8, tert-butyl 4-[4-[1-(4-methylphenyl)-sulfonylpyrrolo[2,3-b]pyridin-4-yl]piperidin-1-yl]sulfonylpiper-idine-1-carboxylate]	0.01 to 0.1 µM
Cc1ccc(C2CCN(S(=O)(=O)C3CCN(C(=O)OC(C)(C)C)CC3)CC2)c(C)c1 [Compound 9, tert-butyl 4-[4-(2,4-dimethylphenyl)piperidin-1-yl]sulfonylpiper-idine-1-carboxylate]	1 to 10 µM
CC(C)(C)OC(=O)N1CCC(S(=O)(=O)N2CCC(c3ncnc4[nH]ccc34)CC2)CC1 [Compound 10, tert-butyl 4-[4-(7H-pyrrolo[2,3-d]pyrimidin-4-yl)piperidin-1-yl]sulfonylpiper-idine-1-carboxylate]	1 to 10 µM
CC(C)(C)OC(=O)N1CCC(S(=O)(=O)N2CCC(c3ccnc4ccccc34)CC2)CC1 [Compound 11, tert-butyl 4-(4-quinolin-4-ylpiperidin-1-yl)sulfonylpiper-idine-1-carboxylate]	0.1 to 1 µM
Cc1ccc(S(=O)(=O)n2ccc3c(C4CCN(S(=O)(=O)C5CCN(C(=O)OC(C)(C)C)CC5)CC4)ncnc32)cc1 [Compound 12, tert-butyl 4-[4-[7-(4-methylphenyl)-sulfonylpyrrolo[2,3-d]pyrimidin-4-yl]piperidin-1-yl]sulfonylpiper-idine-1-carboxylate]	0.1 to 1 µM
COc1ccc(C2CCN(S(=O)(=O)C3CCN(C(=O)OC(C)(C)C)CC3)CC2)cc1 [Compound 13, tert-butyl 4-[4-(4-methoxyphenyl)piperidin-1-yl]sulfonylpiper-idine-1-carboxylate]	0.1 to 1 µM
CC(C)(C)OC(=O)N1CCC(S(=O)(=O)N2CCC(c3ccccc3)CC2)CC1 [Compound 14, tert-butyl 4-(4-phenylpiperidin-1-yl)sulfonylpiper-idine-1-carboxylate]	0.1 to 1 µM
COC(=O)c1cnc2[nH]cc(C3CCN(S(=O)(=O)C4CN(C(=O)OC(C)(C)C)C4)CC3)c2c1 [Compound 15, methyl 3-[1-[1-[(2-methylpropan-2-yl)oxycarbonyl]azetidin-3-yl]sulfonylpiper-idin-4-yl]-1H-pyrrolo[2,3-b]pyridine-5-carboxylate]	1 to 10 µM
